Common to all, as to format: biochemical
Test [1] addresses T1, FTase (Rattus norvegicus, UniProt Q02293+Q04631). In words: Continuous fluorescence assay: transfer of FPP and analogs to N-dansyl-GCVLS by FTase. As to conditions: excitation 340 nm, 505 nm. The text has this: FIG. 8. Progress Curves for Transfer of FPP and Analog Pyrophosphates to Dansyl-GCVLS by FTase. The reaction is monitored for fluorescence intensity at 505 nm with excitation at 340 nm. (a) FPP, (b) AGPP, (c) 8-(pentafluoroaniline)geranyl pyrophosphate, (d) blank.
Continuous Fluorescence Assay for Analog Transfer: An important requirement for these studies is the development of a rapid technique for evaluating whether FPP analogs that are efficiently and appropriately transferred to target substrates by FTase. The analogs were evaluated for their ability to be transferred by FTase to the pentapeptide N-dansyl-GCVLS in a continuous fluorescence assay. (See references 78, 79, infra). There is a time dependent increase in the fluorescence of the dansyl group due to the local increase in hydrophobicity as the adjacent cysteine residue is isoprenylated. […] (FIG. 8).

The next test relates to GGTase I. In words: Transfer of [^3 H]AGPP by GGTase I to H-Ras-CVLL.
Test [2] addresses T1, FTase. In words: Inhibition of FTase-catalyzed transfer of [^3 H]AGPP to p21^H-ras. More on the design: H-Ras is only the protein substrate. To be noted: non-radiolabeled compound, time and concentration dependent transfer. The procedure:
(§1) Assay for Farnesyltransferase Activity--Farnesyltransferase activity was assayed by measuring the amount of [^3 H]farnesyl or [^3 H]anilinogeranyl transferred from [^3 H]FPP or [^3 H]AGPP to recombinant p21^H-ras, as described previously (31). Unless otherwise stated, each reaction mixture contained the following components in a final volume of 25 μl: 50 mM Tris (pH 7.4), 20 mM KCl, 0.2% octyl β-glucopyranoside, 1 mM dithiothreitol, 10-20 ng recombinant FTase, 5 μM p21^Ha-ras, 3 mM MgCl2, 50 μM ZnCl2, and 0.6 μM [^3 H]FPP (33,000 dpm/pmol; American Radiochemical Co.) or 0.1-5 μM [^3 H]AGPP (37,400 dpm/pmol). Following incubation for the indicated times at 37° C., the amount of [^3 H]prenyl transferred was measured by ethanol-HCl precipitation and filtration on glass fiber filters with modification as previously described (19). A blank value was determined in parallel incubation mixtures containing no enzyme. This blank value was subtracted from each reaction before calculating pmol [^3 H]prenyl transferred.
(§2) The observed inhibition kinetics could be a manifestation of the ability of AGPP to act as an alternative substrate for FTase. To evaluate the potential of AGPP to serve as a substrate of FTase, [^3 H]-AGPP was prepared by a similar route as described above, incorporating tritium with a specific activity of 17 Ci/mmol (synthesis to be reported elsewhere). […] The incorporated radioactivity was detected as a band of the expected molecular weight of farnesylated p21^H-ras on SDS-polyacrylamide gels (FIG. 4A, inset). […] The concentration of [^3 H]AGPP that gave half-maximal reaction velocity was approximately 0.5 μM (FIG. 4B).

Test [3] deals with T1, FTase. Briefly: FTase-catalyzed transfer of labeled FPP analogs to p21^H-ras (substrate assay). More on the design: H-Ras is only the protein substrate. To be noted: for transfer to p21^H-ras by FTase, in words: in vitro. How it is done:
FIG. 4. Transfer of Anilinogeranyl from [^3 H]AGPP to p21^Ha-ras by Farnesyltransferase. (A) Each reaction contained 1 μM [^3 H]AGPP (37,400 dpm/pmol) and 10 ng of recombinant FTase in the absence (triangles) or presence (circles) of 5 μM p21^Ha-ras Duplicate samples were incubated for the indicated times at 37° C., and ethanol-HCl precipitated radioactivity was measures as described under "Experimental Procedures". […] The gel was treated with Amplify solution (Amersham), dried, and exposed to Kodak X-OMAT AR film for 2 days at -70° C. The migration of molecular weight markers placed in a adjacent lane is shown. (B) The AGPP substrate saturation curve for FTase was determined by varying the amount of [^3 H]AGPP in the standard reaction described above. Assays were carried out in duplicate for 30 min at 37° C., and the ethanol-HCl precipitable radioactivity measured. The data is representative of three independent experiments.
FIG. 5. […] Farnesyltransferase (10 ng) was incubated in a final volume of 25 μl in the presence of 1.0 μM [^3 H]AGPP or [^3 H]FPP and 5 μM wild-type p21^Ha-ras. After incubation for 30 min at 37° C., the amount of [^3 H]prenyl transferred to p21^Ha-ras was determined as described under "Experimental Procedures". Each value is the average of duplicate incubations and is representative of five separate experiments.
as §1, §2
FIG. 5 depicts transfer of unnatural anilinogeranyl lipid from [^3 H]AGPP and transfer of farnesyl lipid from [^3 H]FPP to H-Ras by FTase. Farnesyltransferase (10 ng) was incubated in a final volume of 25 μl in the presence of 1.0 μM [^3 H]AGPP or [^3 H]FPP and 5 μM wild-type H-Ras. After incubation for 30 min. at 37° C., the amount of [^3 H]prenyl transferred to H-Ras was determined by ethanol-HCl precipitation and scintillation counting. Each value is the average of duplicate incubations and is representative of five separate experiments.

Entries after “also recorded” stand apart in the source; their conditions may differ.

As to `C/C(=C\COP(=O)(O)OP(=O)(O)O)CC/C=C(\C)CNc1ccccc1` [AGPP, (E,E)-8-Aniline-3,7-dimethyl-2,6-octadiene pyrophosphate], the “time-dependent increase in dansyl fluorescence / transfer to dansyl peptide, in words” value is given as “transferred efficiently” at FTase [1] and “Time-dependent increases in the fluorescence of the dansyl group” at FTase [1] (listed as 1). Moreover, the “transfer by GGTase I, in words” value in the test with GGTase I was “transferred by GGTase I to H-Ras-CVLL with a low efficiency”. The “inhibition of transfer of [^3 H]AGPP to p21^H-ras, in words” value against FTase [2] is listed as “found to inhibit”. Besides, the “transfer to p21^H-ras by FTase, in words” value is listed as “transferred efficiently” at FTase [3] (37° C.); “kinetics of transfer are identical to those of FPP” at FTase [3] (37° C., listed as [^3 H]-AGPP); “time dependent fashion; also recorded: transferred appropriately to p21^H-Ras by FTase” on FTase [3] (37° C., listed as [^3 H]AGPP). The “transfer to p21^H-ras lacking the CVLS motif” value at FTase [3] (recombinant p21^H-ras with CVLS removed) was “eliminated the incorporation of tritium into the protein”. For the same molecule, the “concentration that gave half-maximal reaction velocity” value at FTase [3] (transfer to p21^H-ras, 37° C., 30 min) was “approximately 0.5 μM”.
